pIC50: −log10 of the molar value.

One may read the CC50 as the concentration that lowers cell viability or growth by half. As a reminder, the pIC50 is the negative decadic logarithm of the IC50, by convention in mol/L. The low end stands for a high IC50, the high end for a low IC50.

Data set [1] has as its target Envelope glycoprotein gp160 (Human immunodeficiency virus 1) (UniProt Q6QLK5). The data set is described as follows: Induction of conformational changes in HIV1 cYTA48P envelope glycoprotein gp120 infected in PM1/CCR5 cells assessed as mean fluorescence intensity using CD4i monoclonal antibody 4C11 at 100 uM after 15 mins by FACS analysis relative to NBD-556. In kind it is cell-based. A general note: In flow cytometry, cells or beads pass a laser one at a time.

A short description of data set [2]: Cytotoxicity against human PM1 cells harboring CCR5 co-receptor by WST-8 assay. In kind it is cell-based.
In data set [3] the test system is Human immunodeficiency virus 1. The data set is described as follows: Antiviral activity against HIV1 cYTA48P infected in PM1/CCR5 cells by single round assay. Type of data set: functional, organism-based. Conditions: Human immunodeficiency virus 1, cYTA48P.
Data set [4] addresses Envelope glycoprotein gp160 (Human immunodeficiency virus 1) (UniProt Q6QLK5). The data set is described as follows: Induction of conformational changes in HIV1 cYTA48P envelope glycoprotein gp120 infected in PM1/CCR5 cells assessed as mean fluorescence intensity using CD4i monoclonal antibody 4C11 at 100 uM after 15 mins by FACS analysis. Type of data set: cell-based.
Data set [5] has as its system Human immunodeficiency virus 1. The data set is described as follows: Antiviral activity against HIV1 cYTA48P infected in PM1/CCR5 cells at 10 uM by single round assay. In kind it is functional.

Sequence of Envelope glycoprotein gp160 (Human immunodeficiency virus 1) (Q6QLK5 1-814): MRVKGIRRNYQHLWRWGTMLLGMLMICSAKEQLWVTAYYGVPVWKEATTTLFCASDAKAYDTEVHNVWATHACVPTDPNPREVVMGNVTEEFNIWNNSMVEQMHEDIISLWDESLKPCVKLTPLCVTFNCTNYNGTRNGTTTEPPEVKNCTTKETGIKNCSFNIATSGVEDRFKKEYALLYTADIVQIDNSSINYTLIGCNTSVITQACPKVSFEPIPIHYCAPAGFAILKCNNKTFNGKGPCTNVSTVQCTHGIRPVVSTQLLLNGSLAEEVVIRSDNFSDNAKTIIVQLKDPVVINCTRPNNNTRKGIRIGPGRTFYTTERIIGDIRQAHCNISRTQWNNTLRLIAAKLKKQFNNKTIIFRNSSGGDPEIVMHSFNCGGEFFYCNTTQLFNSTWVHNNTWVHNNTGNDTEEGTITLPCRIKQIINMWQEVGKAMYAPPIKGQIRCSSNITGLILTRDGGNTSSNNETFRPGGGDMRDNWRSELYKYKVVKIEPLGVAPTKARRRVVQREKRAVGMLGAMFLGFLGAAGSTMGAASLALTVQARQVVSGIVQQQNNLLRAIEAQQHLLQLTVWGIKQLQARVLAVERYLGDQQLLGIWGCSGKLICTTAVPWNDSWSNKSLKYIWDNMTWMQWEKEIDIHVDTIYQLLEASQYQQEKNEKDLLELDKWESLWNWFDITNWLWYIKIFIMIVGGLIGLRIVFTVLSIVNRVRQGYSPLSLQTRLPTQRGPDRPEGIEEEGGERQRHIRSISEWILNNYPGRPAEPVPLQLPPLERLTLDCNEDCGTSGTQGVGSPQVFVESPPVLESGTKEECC

In the case of `CCOC(=O)C1CCN(C(=O)c2cc3c(C)cc(C)cc3n2C)CC1`, the fold change (FC) in data set [1] came to 0.3. Also, in data set [2], the CC50 is above 50.2 µM. This molecule also had a pIC50 in data set [3] below 4.00. For the same molecule, in data set [4], the Flu intensity turned out to be 8.11.
In the case of `CC1(C)CC(NC(=O)C(=O)Nc2ccc(Cl)cc2)CC(C)(C)N1`, in data set [2], the half-maximal cytotoxic concentration (CC50) worked out at 70.4 µM. Further, the pIC50 in data set [3] was 6.20. In data set [4], the Flu intensity came to 8.91.
As for `CCOC(=O)C1CCN(C(=O)CNc2ccc(Cl)cc2)CC1`, in data set [1], the fold change (FC) stood at 0.081. This molecule also gave a pIC50 in data set [3] below 4.00. Also, the Flu intensity in data set [4] was 23.8.
As for `Cc1cc(C)c2cc(C(=O)NC3CC(C)(C)NC(C)(C)C3)[nH]c2c1`, in data set [1], the fold change (FC) came out at 0.28. Half-maximal cytotoxicity in data set [2] (CC50) was put at 60.3 µM. Further, the pIC50 in data set [3] is below 4.00. The Flu intensity in data set [4] was 8.08.
On to `CCOC(=O)C1CCN(C(=O)c2cc3cc4c(cc3[nH]2)OCO4)CC1`, for which the fold change (FC) in data set [1] was 0.13. Moreover, the pIC50 in data set [3] is 4.20. In data set [4], the Flu intensity came out at 26.2.
As for `O=C(NC1CC2(CCCCC2)NC2(CCCCC2)C1)c1cc2cc(F)c(Cl)cc2[nH]1` (centres undefined), in data set [2], the CC50 amounted to 11.3 µM. The same molecule gave a pIC50 in data set [3] below 4.00.
The corresponding values for `CCOC(=O)C1CCN(C(=O)c2cc3ccc(Cl)cc3n2C)CC1` are 78.4 µM and below 4.00.
For the molecule `Cc1cc(C)c2cc(C(=O)NC3CC4(CCCCC4)NC4(CCCCC4)C3)n(C)c2c1` (centres undefined), in data set [1], the fold change (FC) came to 0.17. In data set [2], this molecule registered a CC50 above 13.5 µM. This molecule also showed a negative logarithm of the IC50 (pIC50) in data set [3] below 4.00. In data set [4], the Flu intensity was determined as 7.96.
As for `CC1(C)CC(NC(=O)c2cc3c(F)c(Cl)ccc3[nH]2)CC(C)(C)N1`, the fold change (FC) in data set [1] is 0.68. This molecule displayed a CC50 in data set [2] of 19.4 µM. Besides, in data set [5], the Activity is listed as 32%. The negative-log IC50 (pIC50) in data set [3] was below 5.00. The Flu intensity in data set [4] amounted to 8.55.
`O=C(NC1CC2(CCCCC2)NC2(CCCCC2)C1)c1cc2cc3c(cc2[nH]1)OCO3` (centres undefined): the fold change (FC) in data set [1] was determined as 0.36. This molecule also yielded a cytotoxic concentration (CC50) in data set [2] above 100 µM. The molecule further showed a negative-log IC50 (pIC50) in data set [3] of 6.00. The Flu intensity in data set [4] was found to be 36.4.
Consider `Cn1c(C(=O)NC2CC(C)(C)NC(C)(C)C2)cc2cc(Cl)ccc21`, for which the half-maximal cytotoxic concentration (CC50) in data set [2] was determined as 37.5 µM. For the same molecule, the pIC50 in data set [3] is below 4.00. In addition, the Flu intensity in data set [4] came to 6.65.
As for `Cn1c(C(=O)NC2CC3(CCCCC3)NC3(CCCCC3)C2)cc2c(F)c(Cl)ccc21` (centres undefined), the CC50 in data set [2] was found to be 12.3 µM. The same molecule showed a pIC50 in data set [3] below 4.00. The Flu intensity in data set [4] is 6.45.
Consider `Cn1c(C(=O)NC2CC(C)(C)NC(C)(C)C2)cc2c(F)c(Cl)ccc21`, for which it took 13.9 µM to reach half-maximal cytotoxicity in data set [2] (CC50). Also, the Activity in data set [5] turned out to be 32%. The molecule further had a pIC50 in data set [3] below 4.00. The Flu intensity in data set [4] was determined as 6.74.
Molecule `CCOC(=O)C1CCN(C(=O)CNc2ccc3c(c2)OCO3)CC1` had a pIC50 in data set [3] below 4.00. Further, the Flu intensity in data set [4] stood at 18.5.
In data set [2], `Cc1cc(C)c2cc(C(=O)NC3CC(C)(C)NC(C)(C)C3)n(C)c2c1` returned a 50% cytotoxic concentration (CC50) above 37.5 µM. Also, the pIC50 in data set [3] was below 4.00. The Flu intensity in data set [4] came out at 7.61.
With `CC1(C)CC(NC(=O)c2cc3cc(Cl)ccc3[nH]2)CC(C)(C)N1`, the fold change (FC) in data set [1] came out at 0.82. The CC50 in data set [2] worked out at 48.6 µM. Also, the pIC50 in data set [3] was 5.44. Besides, in data set [4], the Flu intensity stood at 8.7.
On to `CCOC(=O)C1CCN(C(=O)c2cc3c(F)c(Cl)ccc3[nH]2)CC1`, for which the fold change (FC) in data set [1] worked out at 0.42. The molecule further came in with a half-maximal cytotoxic concentration (CC50) in data set [2] above 200 µM. Besides, the pIC50 in data set [3] is below 4.00. In data set [4], the Flu intensity stood at 8.24.
As to `O=C(NC1CC2(CCCCC2)NC2(CCCCC2)C1)c1cc2c(F)c(Cl)ccc2[nH]1` (centres undefined), the fold change (FC) in data set [1] stood at 0.25. In addition, the CC50 in data set [2] is 11.4 µM. The pIC50 in data set [3] is 5.44. Besides, the Flu intensity in data set [4] was 8.05.
In data set [2], `CC1(C)CC(NC(=O)c2cc3cc(F)c(Cl)cc3[nH]2)CC(C)(C)N1` registered a half-maximal cytotoxic concentration (CC50) of 103 µM. The molecule further showed a negative-log IC50 (pIC50) in data set [3] of 4.05.
As to `O=C(CNc1ccc2c(c1)OCO2)NC1CC2(CCCCC2)NC2(CCCCC2)C1` (centres undefined), the fold change (FC) in data set [1] was found to be 0.19. The molecule also showed a pIC50 in data set [3] of 4.97. For the same molecule, the Flu intensity in data set [4] was found to be 28.7.
For `O=C(CNc1ccc(Cl)cc1)NC1CC2(CCCCC2)NC2(CCCCC2)C1` (centres undefined), the 50% cytotoxic concentration (CC50) in data set [2] was above 100 µM. Moreover, in data set [3], the pIC50 was 5.66. Further, the Flu intensity in data set [4] is 19.6.
`Cn1c(C(=O)NC2CC3(CCCCC3)NC3(CCCCC3)C2)cc2cc(F)c(Cl)cc21` (centres undefined): the half-maximal cytotoxic concentration (CC50) in data set [2] came to 29.4 µM. This molecule had a negative logarithm of the IC50 (pIC50) in data set [3] below 4.00.
Regarding `CC1(C)CC(NC(=O)c2cc3cc4c(cc3[nH]2)OCO4)CC(C)(C)N1`, the fold change (FC) in data set [1] was found to be 0.23. Moreover, in data set [3], the pIC50 was 4.64. In addition, the Flu intensity in data set [4] came to 30.7.
The molecule `O=C(NC1CC2(CCCCC2)NC2(CCCCC2)C1)c1cc2ccc(Cl)cc2[nH]1` (centres undefined) gave a CC50 in data set [2] of 10.7 µM. In data set [5], this molecule registered an Activity of 11%. Also, the pIC50 in data set [3] was below 4.00.
As to `CCOC(=O)C1CCN(C(=O)c2cc3c(F)c(Cl)ccc3n2C)CC1`, the fold change (FC) in data set [1] was 0.76. The molecule also displayed a CC50 in data set [2] above 63.5 µM. The negative logarithm of the IC50 (pIC50) in data set [3] is below 4.00. Also, in data set [4], the Flu intensity was 8.63.
`Cn1c(C(=O)NC2CC(C)(C)NC(C)(C)C2)cc2ccc(Cl)cc21` yielded a CC50 in data set [2] of 33.2 µM. Also, in data set [5], the Activity is given as 27%. In data set [3], this molecule gave a pIC50 below 4.00.
In data set [2], `Cc1cc(C)c2cc(C(=O)NC3CC4(CCCCC4)NC4(CCCCC4)C3)[nH]c2c1` (centres undefined) came in with a 50% cytotoxic concentration (CC50) of 9.6 µM. Also, the negative-log IC50 (pIC50) in data set [3] was below 4.00. For the same molecule, the Flu intensity in data set [4] was 5.27.
Consider `CC1(C)CC(NC(=O)CNc2ccc3c(c2)OCO3)CC(C)(C)N1`, for which the fold change (FC) in data set [1] is 0.073. For the same molecule, in data set [3], the pIC50 is below 4.52. In addition, the Flu intensity in data set [4] was found to be 23.4.
The molecule `CC1(C)CC(NC(=O)c2cc3ccc(Cl)cc3[nH]2)CC(C)(C)N1` had a CC50 in data set [2] of 37.4 µM. In data set [3], this molecule had a pIC50 below 4.00.
In data set [2], `CCOC(=O)C1CCN(C(=O)c2cc3cc(F)c(Cl)cc3[nH]2)CC1` displayed a cytotoxic concentration (CC50) of 121 µM. Also, the negative-log IC50 (pIC50) in data set [3] is below 4.00.
Take `Cn1c(C(=O)NC2CC(C)(C)NC(C)(C)C2)cc2cc(F)c(Cl)cc21`: half-maximal cytotoxicity in data set [2] (CC50) was put at 18.7 µM. The same molecule showed a pIC50 in data set [3] below 4.00.
For `CCOC(=O)C1CCN(C(=O)c2cc3c(C)cc(C)cc3[nH]2)CC1`, the fold change (FC) in data set [1] amounted to 0.33. Also, the CC50 in data set [2] is above 200 µM. For the same molecule, the pIC50 in data set [3] is below 4.00. Besides, the Flu intensity in data set [4] turned out to be 8.14.
As for `CC1(C)CC(NC(=O)CNc2ccc(Cl)cc2)CC(C)(C)N1`, in data set [1], the fold change (FC) was found to be 0.22. This molecule also had a negative-log IC50 (pIC50) in data set [3] of 4.43. The Flu intensity in data set [4] amounted to 30.2.
As to `CCOC(=O)C1CCN(C(=O)c2cc3cc(F)c(Cl)cc3n2C)CC1`, the CC50 in data set [2] was 41.1 µM. Further, the pIC50 in data set [3] is below 4.00.
For `CCOC(=O)C1CCN(C(=O)c2cc3ccc(Cl)cc3[nH]2)CC1`, in data set [2], it took 52.6 µM to reach half-maximal cytotoxicity (CC50). The molecule further had a negative logarithm of the IC50 (pIC50) in data set [3] below 4.00.
The corresponding values for `Cn1c(C(=O)NC2CC3(CCCCC3)NC3(CCCCC3)C2)cc2ccc(Cl)cc21` (centres undefined) are 33.9 µM and below 4.00.

The values are drawn from ChEMBL document CHEMBL4261625, “Flexibility of small molecular CD4 mimics as HIV entry inhibitors” (Bioorg Med Chem, 2018).
